Reference: US20220380310A1, “P2X7R ANTAGONISTS” (priority 2019, published 2022)

How the values were obtained:
[1] = molecular target: T1, Human P2X2 receptor (P2X2R) (Homo sapiens, UniProt Q9UBL9); assay: Yo-Pro-1 uptake assay, P2X2R transfected HEK-293 cells; assay type: cell-based; settings: 5 μM ATP stimulus; for remaining activity at 5 µM: HEK293, compound at 5 μM, read-out: Percentage of activity remains in the presence of the compound at 5 μM, P2X2R (Yo-Pro-1 Assay)
T1 construct: expressed in transfected cells; host or cells: HEK-293
T1 sequence (Q9UBL9 1-471): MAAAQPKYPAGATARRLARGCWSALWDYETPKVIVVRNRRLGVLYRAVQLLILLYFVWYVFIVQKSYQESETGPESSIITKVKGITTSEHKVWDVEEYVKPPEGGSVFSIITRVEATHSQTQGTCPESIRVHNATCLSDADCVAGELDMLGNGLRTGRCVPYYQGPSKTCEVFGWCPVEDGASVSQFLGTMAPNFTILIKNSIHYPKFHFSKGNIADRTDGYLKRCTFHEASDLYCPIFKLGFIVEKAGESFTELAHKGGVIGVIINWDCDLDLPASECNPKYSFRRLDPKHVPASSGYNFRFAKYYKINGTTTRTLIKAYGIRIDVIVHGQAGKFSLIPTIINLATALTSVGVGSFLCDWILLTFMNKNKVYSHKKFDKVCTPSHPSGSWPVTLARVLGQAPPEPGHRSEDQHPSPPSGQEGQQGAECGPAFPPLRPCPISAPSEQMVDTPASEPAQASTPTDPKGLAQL
Excerpt: (§1) Yo-Pro-1 Iodide (Cat. No Y3603 from Fisher Scientific) is a fluorescent DNA-binding dye with a MW of 629 Da. This method is based upon the Yo-Pro-1 entrance to cells through the dilated or “large pore form” of P2X7R and its binding to intracellular DNA whereby it increases its fluorescence intensity (J. Pharmacol. Exp. Ther. 308, 1053-1061). The dye has an absorption spectrum compatible with excitation at 488 nm by argon laser sources and its emission wavelength is in the range of 515-575 nm. This Yo-Pro-1 uptake was measured in HEK-293 cells transiently transfected with P2X7R (J. Biol. Chem. 290, 7930-7942). In Brief, HEK-293 cells were seeded in growth medium at approximately 20,000 cells/well in a 96-well plate on day 1. Transfection was performed on day 2 using Lipofectamine 2000 with the P2X7R DNA plasmid at the concentration of 1.7 μg/ml. The transfection solution was replaced with the growth medium 4 hours later. Fluorescent assays were conducted on day 4. On day 4, the medium was removed, the cells were washed with phosphate buffered saline (PBS) (Cat. No. MT21040CV from Fisher Scientific). Then, 25 μl of PBS were first loaded to each well followed by 25 μl of various test compounds. The third 25 μl of solution contained a mixture of Yo-Pro-1 and stimulus bzATP (2′(3′)-O-(4-Benzoylbenzoyl)adenosine-5′-triphosphate tri(triethylammonium) salt). The final concentration of Yo-Pro-1 was 2.5 μM and of bzATP 30 μM. Fluorescence increases were measured every 30 minutes in a microplate device with excitation at 475 nm and emission wavelength in the range of 500-550 nm. PPADS (Pyridoxalphosphate-6-azophenyl-2′,4′-disulfonic acid tetrasodium) was used as the positive control. The wells with no test compounds added nor bzATP and only containing PBS and Yo-Pro-1 were served as the negative control (N Contl). The positive control (P Contl) wells were the same as N Contl but contained the stimulus, bzATP in this case.
(§2) Data used for analysis were from microplate readings 1 hour after bzATP stimulation. The result of each well was first normalized by its corresponding base microplate reading. The base microplate reading was the first reading right after all components were added. Then, the negative control signal was subtracted from. In the negative control, the test compound and the stimulus were replaced by PBS. An average of six highest values of the plate (AVG) were considered as 100% and the value of each well was divided by AVG and presented as the relative values in percentages.
Human P2X2 receptor (P2X2R) construct (J. Biol. Chem. 290, 7930-7942) was transiently transfected to HEK-293 cells and the Yo-Pro-1 assay was performed as described above. When 5 μM ATP was used as the stimulus, the elevation of receptor mediated activity can be seen in 10 minutes.

[2] = molecular target: T2, P2X7R (Homo sapiens, UniProt Q99572); assay: Yo-Pro-1 uptake assay (Yo-Pro-1 Assay) in HEK-293 cells transiently transfected with P2X7R; assay type: cell-based; settings: for remaining activity at 5 µM: HEK293, read-out: Percentage of activity remains in the presence of the compound at 5 μM, P2X7R (Yo-Pro-1 Assay); for IC50: HEK-293 cells transiently transfected with P2X7R, 30 μM bzATP as stimulus, readings 1 hour after stimulation, estimated from dose-response curves
T2 construct: expressed in transfected cells; host or cells: HEK-293
T2 sequence (Q99572 1-595): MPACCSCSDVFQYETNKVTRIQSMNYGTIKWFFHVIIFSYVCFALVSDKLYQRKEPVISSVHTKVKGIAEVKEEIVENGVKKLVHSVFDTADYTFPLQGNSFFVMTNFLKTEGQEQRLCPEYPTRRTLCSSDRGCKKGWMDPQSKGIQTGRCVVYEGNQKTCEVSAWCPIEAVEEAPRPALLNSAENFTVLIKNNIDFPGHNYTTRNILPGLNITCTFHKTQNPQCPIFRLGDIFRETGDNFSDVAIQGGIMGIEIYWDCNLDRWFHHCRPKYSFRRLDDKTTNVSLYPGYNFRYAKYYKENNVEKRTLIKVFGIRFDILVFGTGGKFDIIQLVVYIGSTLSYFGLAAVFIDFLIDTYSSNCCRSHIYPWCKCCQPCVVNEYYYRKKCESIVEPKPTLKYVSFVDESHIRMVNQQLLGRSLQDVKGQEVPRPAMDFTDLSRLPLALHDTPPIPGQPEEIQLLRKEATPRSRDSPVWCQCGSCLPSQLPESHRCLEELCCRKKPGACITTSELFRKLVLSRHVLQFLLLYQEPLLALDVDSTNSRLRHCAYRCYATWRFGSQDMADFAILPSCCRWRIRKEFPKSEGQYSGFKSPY
Excerpt: as §1, §2
For comparison of the antagonistic effectiveness of the compounds of this invention among P2X receptors, assays were conducted at 5 μM. Among 55 compounds tested, 29 can reduce the P2X7R activity to […] of the normal activity (Table 2).

[3] = compound at 5 μM, 30 μM bzATP stimulus, reading 1 hour after stimulation, transfected HEK-293 cells

Row | Structure (SMILES) | remaining activity at 5 µM [1] | remaining activity at 5 µM [2, 3] | IC50 [2] | Percentage of activity remains in the presence of the compound at 5 μM, P2X2R (Yo-Pro-1 Assay) [1] | Percentage of activity remains in the presence of the compound at 5 μM, P2X7R (Yo-Pro-1 Assay) [2, 3]
1 | CCOc1ccc(S(=O)(=O)N2CCCC(NC(=O)CCc3ccccc3)C2)cc1 (centres unmarked) [#37] | 58.1% | 82.7% | 28500 nM |  | 
2 | O=C(CCc1ccccc1)NC1CCCN(S(=O)(=O)c2ccc(N3CCC(Oc4ccccc4)CC3)cc2)C1 (centres unmarked) [#38] | 57.6% | 7.5% | 900 nM |  | 
3 | CC(C)OC1CCN(c2ccc(S(=O)(=O)N3CCCC(NC(=O)CCc4ccccc4)C3)cc2)CC1 (centres unmarked) [#39] | 66.3% | 11.1% | 3900 nM |  | 
4 | CC1CCN(c2ccc(S(=O)(=O)N3CCCC(NC(=O)CCc4ccccc4)C3)cc2)CC1 (centres unmarked) [#40] | 69.1% | 9.1% | 800 nM |  | 
5 | CC(C)(C)OC(=O)N1CCC(C2CCN(c3ccc(S(=O)(=O)N4CCCC(NC(=O)CCc5ccccc5)C4)cc3)CC2)CC1 (centres unmarked) [#41] | 61.4% | 18.3% | 1800 nM |  | 
6 | O=C(CCc1ccccc1)NC1CCCN(S(=O)(=O)c2ccc(N3CCC(C(F)(F)F)CC3)cc2)C1 (centres unmarked) [#42] | 59.2% | -1.7% | 900 nM |  | 
7 | O=C(CCc1ccccc1)NC1CCCN(S(=O)(=O)c2ccc(F)c(Cl)c2)C1 (centres unmarked) [#43] | 71.1% | 23.5% | 3000 nM |  | 
8 | CC1CCCN(c2ccc(S(=O)(=O)N3CCCC(NC(=O)CCc4ccccc4)C3)cc2)C1 (centres unmarked) [#44] | 61.4% | -5.1% | 100 nM |  | 
9 | O=C(CCc1ccccc1)NC1CCCN(S(=O)(=O)c2ccc(N3CCCCC3)c(Cl)c2)C1 (centres unmarked) [#45] | 83.3% | 33.1% | 9300 nM |  | 
10 | O=C(CCc1ccccc1)NC1CCCN(S(=O)(=O)c2ccc(N3CCC(F)(F)CC3)cc2)C1 (centres unmarked) [#46] | 39.1% | -8.6% | 3800 nM |  | 
11 | CC1CCCCN1c1ccc(S(=O)(=O)N2CCCC(NC(=O)CCc3ccccc3)C2)cc1 (centres unmarked) [#47] | 69.7% | -7.4% | 100 nM |  | 
12 | CC(C)N(C(C)C)S(=O)(=O)c1ccc(N2CCCC(NC(=O)CCc3ccccc3)C2)cc1 (centres unmarked) [#49] | 55.9% | 1.4% | 2600 nM |  | 
13 | O=C(CCc1ccccc1)NC1CCCN(c2ccc(S(=O)(=O)Nc3ccccc3)cc2)C1 (centres unmarked) [#50] | 59.7% | -1.1% | 600 nM |  | 
14 | O=C(CCc1ccccc1)NC1CCCN(c2ccc(S(=O)(=O)NC3CCCCC3)cc2)C1 (centres unmarked) [#51] | 46.6% | -1% | 3100 nM |  | 
15 | O=C(CCc1ccccc1)NC1CCCN(c2ccc(S(=O)(=O)NCc3ccco3)cc2)C1 (centres unmarked) [#52] | 45.8% | 36.9% | 2200 nM |  | 
16 | NS(=O)(=O)c1ccc(N2CCCC(NC(=O)CCc3ccccc3)C2)cc1 (centres unmarked) [#53] | 70.9% | -0.5% | 4600 nM |  | 
17 | O=C(CCc1ccccc1)NC1CCCN(c2ccc(S(=O)(=O)N3CCCCC3)cc2)C1 (centres unmarked) [#54] | 81.7% | -9.3% | 1500 nM |  | 
18 | O=C(CCc1ccccc1)NC1CCCN(c2ccc(S(=O)(=O)N3CCCC3)cc2)C1 (centres unmarked) [#55] | 85.4% | 4.6% | 2900 nM |  | 
19 | Cc1nc(N=Nc2ccc(S(=O)(=O)[O-])cc2S(=O)(=O)[O-])c(COP(=O)([O-])[O-])c(C=O)c1O.[Na+].[Na+].[Na+].[Na+] [PPADS, Pyridoxalphosphate-6-azophenyl-2′,4′-disulfonic acid tetrasodium, reference compound] |  |  |  | 29.6% | 0.7%
